Experimental findings from patent publication US6482799B1, “Self-preserving multipurpose ophthalmic solutions incorporating a polypeptide antimicrobial” (The Regents of the University of California, priority 1999, dated 2002) are described below.

Data set [1] deals with P. aeruginosa (ATCC 27853). Put plainly: Protocol 3 time-dependent antimicrobial activity at one dose level. It is filed as cell-based, Pseudomonas aeruginosa. To be noted: for Bacterial growth, Buffer and L-indolicidin 50 μg/ml: 100 mM sodium phosphate buffer. As for the experimental part: The objective of this protocol is to establish a procedure for determining the antimicrobial activity of indolicidin (e.g., L-IND) at 50 μg/ml over an extended exposure time up to 24 hours at room temperature. It is believed that this procedure more closely mimics the recommended use of lens-care products.
Exposure of the test organism to indolicidin occurs in a buffered solution for up to 24 hours with sampling for viability at different time intervals. Polypropylene 96-well microtiter plates and microcentrifuge tubes are used for exposure and dilution of indolicidin, respectively.
The following materials are used: sterile glass tubes containing 5 ml of Mueller-Hinton Broth (MHB), Mueller-Hinton agar plates, sterile 96-well polypropylene microtiter plates, and sterile polypropylene microcentrifuge tubes.
One or more of the following microorganisms are used in assays using this protocol or modification of this protocol: Pseudomonas aeruginosa (ATCC 9027), Pseudomonas aeruginosa (ATCC 27853), and S. aureus (ATCC 6538).
Five 5 ml of MHB tubes are innoculated with the tester strain(s) from MHA plates and grown overnight at 37° C. on a shaker (180 rpm). A micropipet tip is prewet for at least 2 minutes with 100 μl of the stock solution of indolicidin (e.g., L-IND). The test article is dispensed back in the stock solution vial and the pipette is reset to a volume of 10 μl. Polypropylene microcentrifuge tubes are used to dilute the stock of indolicidin (10 mg/ml) 10-fold in sterile water. To obtain a 10× solution of indolicidin with a dose level equivalent to 50 μg/ml dose level dilute 10 μl of the stock solution of indolicidin in 90 μl of sterile water. (The concentration of indolicidin in the final exposure volume of 100 μl will be 5 μg when 10 μl of the 10× solution is added to 100 μl of bacterial suspension). […]
Survival is determined by counting the colonies appearing on plates after overnight incubation at 37° C. The results are expressed as CFU/ml and survival is expressed as the percent of the bacteria that survived the treatment. […]

In data set [2] the test system is Staphylococcus aureus 502A. In words: Dose response of antimicrobial activity in 10 mM sodium phosphate buffer. It is filed as cell-based. To be noted: 10 μg/mL indolicidin, 2 hours, 10 mM sodium phosphate buffer pH 7.4, 37° C., 2×10^6 CFU. The protocol: The time course and dose-dependence of the antimicrobial activity of an antimicrobial peptide can be determined by incubating a microorganism with the antimicrobial peptide and determining the viability after various times of incubation or after treatment with various concentrations of the antimicrobial peptide.
Exemplary assays using indolicidin and indolicidin analogs were performed in 10 mM sodium phosphate buffer, pH 7.4, at 37° C., as described by Selsted et al. (1985) Infect. Immun. 45:150-154, which is incorporated herein by reference.
The dose response of a gram negative bacterial strain, Escherichia coli ML35, and a gram positive bacterial strain, Staphylococcus aureus 502A, to indolicidin was determined by incubating 2×10^6 colony forming units (CFU) of log phase bacteria with 0-25 μg/mL of indolicidin for two hours. Following incubation, the cultures were serially diluted and plated on nutrient agar. Viability of both gram negative and gram positive bacteria was reduced by at least four orders of magnitude in incubations containing 10 μg/mL of indolicidin. E. coli was more susceptible than S. aureus, as >95% of the input cells were killed after 2 hr incubation with 2.5 μg/mL indolicidin. The indolicidin diluent, 0.01% acetic acid, had no effect on either bacterial strain.

A short description of data set [3]: Toxicity study, topical ocular administration. The protocol:
The objective of this study was to determine if the treatment regimen proposed for the efficacy study of the defensin formulations caused target organ toxicity. This study is not intended to support application for research or marketing permits for products regulated by governmental agencies. The purpose of this study is to provide range-finding data is therefore, not within the scope of Good Laboratory Practice Guidelines.
Rabbits were treated four times on Day 1 at ˜1 hour intervals, and twice daily at ˜12 hour intervals administered on Days 2 through 4.
Dosing volumes were 0.1 mL/mouse (intravaginal), 0.1 mL/mouse (intraperitoneal), and 20 μL/rabbit. The study lasted 5 days, with day 1 the first day of dose administration.
The dose formulations were supplied in pyrogen-free saline.

For `CC[C@H](C)[C@H](N)C(=O)N[C@@H](CC(C)C)C(=O)N1CCC[C@H]1C(=O)N[C@@H](Cc1c[nH]c2ccccc12)C(=O)N[C@@H](CCCCN)C(=O)N[C@@H](Cc1c[nH]c2ccccc12)C(=O)N1CCC[C@H]1C(=O)N[C@@H](Cc1c[nH]c2ccccc12)C(=O)N[C@@H](Cc1c[nH]c2ccccc12)C(=O)N1CCC[C@H]1C(=O)N[C@@H](Cc1c[nH]c2ccccc12)C(=O)N[C@@H](CCCNC(=N)N)C(=O)N[C@@H](CCCNC(=N)N)C(N)=O` [L-indolicidin, H2N-ILPWKWPWWPWRR-CONH2], the survival result in data set [1] (50 μg/ml, 100 mM sodium phosphate buffer pH 7.4, all time points 0-24 hours) was “no survival”. The “Bacterial growth, Buffer and L-indolicidin 50 μg/ml” value in data set [1] (incubation time 0 hr) and in data set [1] (incubation time 24 hr) was 0 each time. For the same molecule, the Viability reduction result in data set [2] is “at least four”. For the same molecule, the “deaths or clinical signs of toxicity” value in data set [3] (10, 100 or 1000 μg/mL, BPN-A-amide 30, 300 or 3000 μg/mL) was “No deaths or biologically significant clinical signs of toxicity”. In data set [3] (20 μL/rabbit at 10, 100 or 1000 μg/mL, BPN-A-amide at 30, 300 or 3000 μ/mL), the “toxic changes in rabbit eyes (histology)” value is “No toxic changes”.
